The target in the test is Casein kinase II subunit alpha (Homo sapiens, UniProt P68400). The test can be described thus: CK2α Inhibition Assay.
Sequence of Casein kinase II subunit alpha (P68400 whole entry): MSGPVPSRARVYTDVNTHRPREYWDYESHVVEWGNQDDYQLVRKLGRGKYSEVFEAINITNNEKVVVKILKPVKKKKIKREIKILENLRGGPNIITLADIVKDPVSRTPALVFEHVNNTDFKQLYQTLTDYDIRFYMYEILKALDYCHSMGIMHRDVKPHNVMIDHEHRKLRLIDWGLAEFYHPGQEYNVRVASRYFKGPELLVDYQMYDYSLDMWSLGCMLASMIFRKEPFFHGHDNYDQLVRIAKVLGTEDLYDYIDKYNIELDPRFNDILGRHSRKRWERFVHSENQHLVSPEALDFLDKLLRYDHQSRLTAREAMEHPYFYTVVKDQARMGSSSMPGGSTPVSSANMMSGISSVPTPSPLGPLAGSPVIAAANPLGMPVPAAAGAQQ
Method: The activity of CK2α was tested using P81 filter isotopic assay, as it was described earlier [Łukowska-Chojnacka et al., Bioorg.
`[N-]=[N+]=NCCn1cnc2c(Br)c(Br)c(Br)c(Br)c21` [1-(2-Azidoethyl)-4,5,6,7-tetrabromo-1H-benzimidazole (3)]: the affinity, expressed as Ki, was 2340 nM. For `[N-]=[N+]=NCCCn1cnc2c(Br)c(Br)c(Br)c(Br)c21` [1-(3-Azidopropyl)-4,5,6,7-tetrabromo-1H-benzimidazole (5)], the affinity, expressed as Ki, was 3280 nM. With `O=C(O)c1cn(CCn2cnc3c(Br)c(Br)c(Br)c(Br)c32)nn1` [1-[2-(4,5,6,7-Tetrabromo-1H-benzimidazol-1-yl)ethyl]-1H-1,2,3-triazole-4-carboxylic acid (7)], the Ki (usually the dissociation constant of the complex between target and ligand, obtained from inhibition or displacement) is 1960 nM. The compound `O=C(O)c1cn(CCCn2cnc3c(Br)c(Br)c(Br)c(Br)c32)nn1` [1-[3-(4,5,6,7-Tetrabromo-1H-benzimidazol-1-yl)propyl]-1H-1,2,3-triazole-4-carboxylic acid (10)] yielded an inhibition constant (Ki) of 910 nM. With `O=C(O)c1cn(CCCn2nc3c(Br)c(Br)c(Br)c(Br)c3n2)nn1` [1-[3-(4,5,6,7-Tetrabromo-2H-benzotriazol-2-yl)propyl]-1H-1,2,3-triazole-4-carboxylic acid (22)] the figure was 2470 nM; with `O=C(O)CCc1cn(CCn2cnc3c(Br)c(Br)c(Br)c(Br)c32)nn1` [3-{1-[2-(4,5,6,7-Tetrabromo-1H-benzimidazol-1-yl)ethyl]-1H-1,2,3-triazole-4-yl}propanoic acid (8)], 5370 nM. `O=C(O)CCc1cn(CCCn2cnc3c(Br)c(Br)c(Br)c(Br)c32)nn1` [3-{1-[3-(4,5,6,7-Tetrabromo-1H-benzimidazol-1-yl)propyl]-1H-1,2,3-triazole-4-yl}propanoic acid (11)] displayed a Ki of 2370 nM. With `O=C(O)CCc1cn(CCCn2nc3c(Br)c(Br)c(Br)c(Br)c3n2)nn1` [3-{1-[3-(4,5,6,7-Tetrabromo-2H-benzotriazol-2-yl)propyl]-1H-1,2,3-triazole-4-yl}propanoic acid (23)] the figure was 3160 nM; with `Cc1c(Br)c(Br)c(Br)c2nc[nH]c12` [4,5,6-tribromo-7-methyl-1H-benzimidazole (13)], 2260 nM.

The values above are taken from BindingDB's records for doi:10.1016/j.bioorg.2017.02.017 (Warsaw University of Technology, 2017).
